How the values were obtained:
[1] = biological target: Rac (Homo sapiens, UniProt P63000); test: nucleotide exchange: Tiam-induced exchange of mant-GDP with Rac; assay type: biochemical
Source text: (§1) For example, even at 10 times the IC50 of Cdc42, a 50% inhibition of the association of mant-GDP with Rac or Rho was not achieved.

[2] = biological target: Rho (Homo sapiens, UniProt P61586); test: nucleotide exchange: Large-induced exchange of mant-GDP with Rho; assay type: biochemical
Source text: as §1

[3] = system: 32D myeloid progenitors; test: FACS analysis of F-actin reorganization in 32D progenitors; assay type: cell-based, murine; settings: dose-dependent pattern
Source text: (§2) To shed light on potential roles of CASIN in HSPC mobilization, the effects of CASIN on Cdc42-related cellular functions was studied, including adhesion, migration, and F-actin polymerization of progenitor cells in 32D myeloid progenitors. […] SDF-1α stimulation causes a reorganization of F-actin into a cortical ring around the cells. […] Thirdly, to gain further insight into cellular specificity and efficacy of CASIN, and also to rule out possible toxic effects by CASIN, Cdc42-involved BM progenitor cell functions were examined, including proliferation, adhesion, migration, and F-actin polymerization, in Cdc42^+/+ cells in parallel with Cdc42^−/− cells. In line with additional studies in a Cdc42 conditional knockout mouse model as described herein, Cdc42^−/− LDBM cells have increased CFU-forming progenitors compared to those of Cdc42^+/+.

[4] = system: Lin^− BM cells; test: FACS analysis of F-actin in Lin− BM cells; assay type: cell-based, murine; settings: column-selected Lin^− BM cells, dose-dependent pattern
Source text: as §2

[5] = system: C57Bl/6 mice; test: Example 7 PK/PD analysis of HPC mobilization in C57Bl/6 mice; assay type: in vivo
Description: The mice are i.p. administered with CASIN at 6 different doses (0.5, 1.0, 2.5, 5.0, 7.5, and 10 mg/Kg), and ˜1 ml blood are collected by cardiac puncture for PD and PK analysis predosing, 6, 12, 24, 36, 48, 60, and 72 h postdosing. 5 mice are used for each group. To do PK analysis, concentrations of CASIN in plasma are determined by high-pressure liquid chromatography (HPLC) with electrochemical detection, and then all compartmental and noncompartmental analyses are performed using WinNonlin Professional (version 2.0) software (Pharsight, Cary, N.C.). The maximum drug concentration in serum (Cmax) and the time to Cmax are determined directly from the concentration-time curves. Terminal elimination half-life is determined by linear regression of the log-transformed final concentration-time points. As for the PD analysis, the effects of CASIN on mobilization of CFU-GM, CFU-GEMM, BFU-E and CFU-E to the blood of C57Bl/6 mice are evaluated. By using the rest of blood, assays for CFU-GM, CFU-GEMM, BFU-E and CFU-E are performed using ingredients and cytokine combinations, and then the plot of CFU number versus time across the dose groups is drawn. In this way, the optimal dose and time for mobilization in C57Bl/6 mice are determined. […]

[6] = system: donor cell engraftment; test: Example 9 mobilization as preparative regimen for HSC transplantation; assay type: in vivo, mice
Description: If the microenvironmental niches are vacated after CASIN exposure, donor HSCs might engraft better in hosts treated with a mobilizing agent such as CASIN compared with non-mobilized controls. To test this, bone marrow transplantation is performed on recipient mice which are pre-conditioned with CASIN. […] Additionally, AMD3100, G-CSF, and control medium are used in parallel with CASIN as controls.
Briefly, mice are treated with CASIN, and 4×10^7 donor bone marrow cells from congenic mouse strain are transplanted 48 h later. Donor cell engraftment is assayed at 3 months using the congenic markers by flow cytometry.
Additionally, multiple cycles of mobilization with CASIN may increase the number of available niches. Therefore, this study investigates whether repeated cycles of CASIN mobilization, each followed by donor cell transplantation, could result in increased engraftment. Briefly, mice receive one weekly injection of CASIN on 3 consecutive weeks and 4×10^7 donor marrow cells are transplanted 48 hours after each mobilization. Control animals also received 3 weekly infusions of 4×10^7 donor marrow cells but no CASIN. And the donor engraftment is assayed at 3 months after transplantation as well.

[7] = biological target: Cdc42 (Mus musculus, UniProt P60766); test: Cdc42 activity (effector pulldown) in primary murine fibroblasts; assay type: cell-based; set-up: endogenous in cells; host or cells: murine low density bone marrow (LDBM) cells; settings: Cdc42GAP^−/− primary murine fibroblasts
Chain of Cdc42 (P60766 whole entry): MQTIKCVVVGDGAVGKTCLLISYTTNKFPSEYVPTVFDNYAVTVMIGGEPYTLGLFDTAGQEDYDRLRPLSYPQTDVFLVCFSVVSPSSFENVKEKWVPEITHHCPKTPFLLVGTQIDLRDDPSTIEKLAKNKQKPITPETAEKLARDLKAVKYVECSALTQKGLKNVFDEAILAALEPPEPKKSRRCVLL
Source text: To investigate the Cdc42-dependent cytoskeleton rearrangement, Swiss 3T3 fibroblasts were used since it was abundantly elaborated in Swiss 3T3 fibroblats that bradykinin induces actin filopodia formation through activating Cdc42, whereas PDGF activates Rac1 and induces Rac-mediated membrane lamellipoidia, and LPA responsible for RhoA activation, eliciting RhoA-medicated formation of actin stress fibers and focal adhesion assembly (Ridley, A. J. et al. Cell 70, 401-410 (1992); Ridley, A. J. et al. Cell 70, 389-399 (1992); Kozma, R. et al. Mol Cell Biol 15, 1942-1952 (1995)).
To analyze the effects of CASIN on the formation of active GTP-bound Cdc42, RhoA, and Rac1, effector pulldown assays were carried out as described previously. Cdc42GAP^−/− MEF, LDBM, CD34^+ hCB cells were treated with CASIN at doses of 5-20 μM in parallel with vehicle control for 2 hrs after overnight starvation, and stimulated with cytokines subsequently. And then cells were lysed in a buffer containing 20 mM Tris-HCL (pH 7.6), 100 mM NaCl, 1% Triton X-100, 10 mM MgCl2, 2 mM NaF, and Protease inhibitor cocktail (Roche Diagnostics). Lysates were incubated with GST-P21-binding domain of PAK1 for RAC1-GTP and Cdc42-GTP, and GST-RBD domain of Rhotekin for RhoA-GTP respectively. […]

Chain of Rho (P61586 whole entry): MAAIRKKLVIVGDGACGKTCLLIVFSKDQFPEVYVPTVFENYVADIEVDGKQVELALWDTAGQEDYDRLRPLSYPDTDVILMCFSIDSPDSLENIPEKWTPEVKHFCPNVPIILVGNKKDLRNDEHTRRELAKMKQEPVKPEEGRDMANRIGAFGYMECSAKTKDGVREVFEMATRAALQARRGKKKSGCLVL

OCCNC1CCCc2c1[nH]c1ccc(-c3ccccc3)cc21 (centres unmarked) [CASIN] was tested, and the “Tiam induced nucleotide exchange of mant-GDP with Rac” value ([1]; FIG. 6) was “did not affect”, the “inhibition of the association of mant-GDP with Rac” value ([1]; at 10 times the IC50 of Cdc42) was less than 50% and the “Large induced nucleotide exchange of mant-GDP with Rho” value ([2]; FIG. 6) was “did not affect”. For the same compound, the “inhibition of the association of mant-GDP with Rho” value ([2]; at 10 times the IC50 of Cdc42) was less than 50%, the “F-actin reorganization stimulated by SDF1α” value [3] was “significantly dampened” and the “F-actin reorganization in response to SDF-1α” value [4] was “impaired”. The “mobilization after multiple injections one half-life time apart” value ([5]; C57/B16) was “stronger mobilization effects than that of single CASIN injection”, the “mobilization of HPCs (colony numbers versus dose)” value ([5]; single i.p. dose, C57Bl/6 mice) was “dose-dependent pattern” and the “engraftment with 3-cycle administration and subsequent transplantation” value ([6]; 3 weekly cycles) was “further improved compared to one cycle”. The “engraftment of donor cells in pre-conditioned recipients” value ([6]; compared to the non-mobilization control) was “significantly increased engraftment of donor cells” and the Cdc42 activity [7] was “dose-dependently inhibited”.

Source: patent US9433663B2, “Mobilization of hematopoietic stem cells” (Children's Hospital Medical Center, priority 2008, dated 2016)
